# Assay results from ChEMBL document CHEMBL1128940, “Dual inhibition of angiotensin-converting enzyme and neutral endopeptidase by tricyclic benzazepinone thiols” (Bioorg Med Chem Lett, 1996).
# Key:
# [1] = molecular target: Angiotensin-converting enzyme (Homo sapiens, UniProt P12821+Q9BYF1); experiment: Inhibition of Angiotensin I converting enzyme; assay type: protein assay
# [2] = molecular target: Neprilysin (Homo sapiens, UniProt P08473); experiment: Inhibition of neutral endopeptidase
# Sequence of Neprilysin (P08473 whole entry): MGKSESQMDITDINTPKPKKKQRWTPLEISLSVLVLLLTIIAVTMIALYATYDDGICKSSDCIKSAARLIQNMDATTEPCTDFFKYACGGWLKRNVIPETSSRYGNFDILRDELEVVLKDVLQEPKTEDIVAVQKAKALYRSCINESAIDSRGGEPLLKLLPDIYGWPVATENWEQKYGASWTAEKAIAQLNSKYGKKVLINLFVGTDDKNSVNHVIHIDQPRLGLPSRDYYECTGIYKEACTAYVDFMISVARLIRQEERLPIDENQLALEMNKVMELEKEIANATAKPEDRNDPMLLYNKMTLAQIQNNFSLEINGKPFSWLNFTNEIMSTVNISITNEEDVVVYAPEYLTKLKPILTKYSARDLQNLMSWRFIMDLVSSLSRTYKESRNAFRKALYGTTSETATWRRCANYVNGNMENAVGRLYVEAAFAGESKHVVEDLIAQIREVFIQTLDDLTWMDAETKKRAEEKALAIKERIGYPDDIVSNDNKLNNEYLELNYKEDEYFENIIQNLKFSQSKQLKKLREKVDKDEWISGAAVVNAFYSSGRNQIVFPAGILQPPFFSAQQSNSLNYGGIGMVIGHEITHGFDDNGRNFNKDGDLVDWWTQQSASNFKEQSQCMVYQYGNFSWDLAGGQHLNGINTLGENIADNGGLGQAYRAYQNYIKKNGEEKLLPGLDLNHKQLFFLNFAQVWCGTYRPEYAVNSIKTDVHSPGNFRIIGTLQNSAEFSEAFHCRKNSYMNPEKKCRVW
structure (smiles),measurement,setting,value
O=C(NC1CCc2cccc3c2N(C1=O)[C@H](C(=O)O)C3)[C@@H](S)Cc1ccc(-c2ccccc2)cc1 (some centres not stated),IC50,[1],89 nM
same,IC50,[2],> 1000 nM
O=C(O)[C@@H]1Cc2cccc3c2N1C(=O)C(NC(=O)C1(S)CCCC1)CC3 (some centres not stated),IC50,[1],253 nM
same,IC50,[2],> 1000 nM
CC[C@@H](C)[C@H](S)C(=O)NC1CCc2cccc3c2N(C1=O)[C@H](C(=O)O)C3 (some centres not stated),IC50,[1],41 nM
same,IC50,[2],> 1000 nM
CC(C)[C@H](S)C(=O)NC1CCc2cccc3c2N(C1=O)[C@H](C(=O)O)C3 (some centres not stated),IC50,[1],30 nM
same,IC50,[2],940 nM
O=C(N[C@@H]1CCc2cccc3c2N(C1=O)[C@H](C(=O)O)C3)[C@@H](S)Cc1ccccc1,IC50,[1],62 nM
same,IC50,[2],> 1000 nM
O=C(N[C@H]1CCc2cccc3c2N(C1=O)[C@H](C(=O)O)C3)C(CS)Cc1ccc(-c2ccccc2)cc1 (stereo in doubt; 4n (S)),IC50,[1],1120 nM
same,IC50,[2],12 nM
O=C(N[C@H]1CCc2cccc3c2N(C1=O)[C@H](C(=O)O)C3)[C@@H](S)Cc1ccccc1,IC50,[1],40 nM
same,IC50,[2],48 nM
C[C@H](S)C(=O)NC1CCc2cccc3c2N(C1=O)[C@H](C(=O)O)C3 (some centres not stated),IC50,[1],165 nM
same,IC50,[2],> 1000 nM
O=C(N[C@H]1CCc2cccc3c2N(C1=O)[C@H](C(=O)O)C3)C(CS)Cc1ccc(-c2ccccc2)cc1 (stereo in doubt; 4m (S)),IC50,[1],77 nM
same,IC50,[2],15 nM
O=C(NC1CCc2cccc3c2N(C1=O)[C@H](C(=O)O)C3)[C@@H](S)C1CCCCC1 (some centres not stated),IC50,[1],< 100 nM
same,IC50,[2],> 1000 nM
O=C(CS)NC1CCc2cccc3c2N(C1=O)[C@H](C(=O)O)C3 (some centres not stated),IC50,[2],> 1000 nM
CC(C)(S)C(=O)NC1CCc2cccc3c2N(C1=O)[C@H](C(=O)O)C3 (some centres not stated),IC50,[1],> 1000 nM
same,IC50,[2],> 1000 nM
O=C(NC1CCc2cccc3c2N(C1=O)[C@H](C(=O)O)C3)[C@H](S)Cc1ccccc1 (some centres not stated),IC50,[1],283 nM
same,IC50,[2],83 nM
O=C(O)[C@@H]1Cc2cccc3c2N1C(=O)C(NC(=O)C1(S)Cc2ccccc2C1)CC3 (some centres not stated),IC50,[1],> 1000 nM
same,IC50,[2],505 nM
